Experimental data from US10577362B2, “Substituted 2, 4-diamino-quinoline derivatives for use in the treatment of proliferative diseases” (GENOSCIENCE PHARMA, priority 2016, dated 2020).

Tests used:
Format in all cases: cell-based, human
[1] = tested on: MOLM-14 (acute myeloid leukemia) cell line; experiment: CellTiter-Glo luminescent cell viability assay, MOLM-14; details: Homo sapiens; for viability at 4 µM: MOLM-14, compound at 4 μM; for viability at 4 µM / viability at 10 µM: 72 h; for viability at 10 µM: MOLM-14, compound at 10 μM; for EC50: MOLM-14 cell line, 72 h incubation, CellTiter-Glo, read-out: EC50, growth inhibition of MOLM-14
How it was run: (§1)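 Luminescent signal, normalised to diluent-treated cultures, defines % viability; EC50 is the concentration lowering it to 50%. Cells had been exposed to compound for 72 h at 37 °C in medium with 10% FBS, at a constant H2O or DMSO percentage.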

[2] = tested on: A375 (malignant melanoma) cell line; experiment: CellTiter-Glo luminescent cell viability assay, A375; details: Homo sapiens, A-375; for viability at 4 µM: A375, compound at 4 μM; for viability at 4 µM / viability at 10 µM: 72 h; for viability at 10 µM: A375, compound at 10 μM; for EC50: A375 cell line, 72 h incubation, CellTiter-Glo, read-out: EC50, growth inhibition of A375
How it was run: (§2)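 Adherent lines plated overnight, MOLM-14 (suspension) 1 h before dosing, in medium with 10% FBS at 37 °C, 5% CO2. Compounds added at varying concentrations for 72 h; CellTiter-Glo luminescence read, EC50 as dose reducing signal to 50% of diluent-treated cells, at least duplicate points.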

[3] = tested on: HCT-116 (colorectal carcinoma) cell line; experiment: CellTiter-Glo luminescent cell viability assay, HCT-116; details: Homo sapiens; for viability at 4 µM: HCT-116, compound at 4 μM; for viability at 4 µM / viability at 10 µM: 72 h; for viability at 10 µM: HCT-116, compound at 10 μM; for EC50: HCT-116 cell line, 72 h incubation, CellTiter-Glo, read-out: EC50, growth inhibition of HCT-116
How it was run: as §2

[4] = tested on: Huh7 (hepatocellular carcinoma) cell line; experiment: CellTiter-Glo luminescent cell viability assay, Huh7; details: Homo sapiens, Huh-7; for viability at 4 µM: Huh7, compound at 4 μM; for viability at 4 µM / viability at 10 µM: 72 h; for viability at 10 µM: Huh7, compound at 10 μM; for EC50: Huh7 cell line, 72 h incubation, CellTiter-Glo, read-out: EC50, growth inhibition of Huh7
How it was run: as §1

[5] = tested on: 786-O (renal adenocarcinoma) cell line; experiment: CellTiter-Glo luminescent cell viability assay, 786-O; details: Homo sapiens, 786-0; for viability at 4 µM / viability at 10 µM: 786-O, 72 h; for viability at 4 µM: compound at 4 μM; for viability at 10 µM: compound at 10 μM; for EC50: 786-O cell line, 72 h incubation, CellTiter-Glo, read-out: EC50, growth inhibition of 786-O
How it was run: as §2

[6] = tested on: HepG2 (hepatocellular carcinoma) cell line; experiment: CellTiter-Glo luminescent cell viability assay, HepG2; details: Homo sapiens; for viability at 4 µM / viability at 10 µM: HepG2, HepG, 72 h; for viability at 4 µM: compound at 4 μM; for viability at 10 µM: compound at 10 μM; for EC50: HepG2 cell line, 72 h incubation, CellTiter-Glo, read-out: EC50, growth inhibition of HepG2
How it was run: as §1

Row | Compound | viability at 4 µM [1] [%] | viability at 10 µM [1] [%] | viability at 4 µM [2] [%] | viability at 10 µM [2] [%] | viability at 4 µM [3] [%] | viability at 10 µM [3] [%] | viability at 4 µM [4] [%] | viability at 10 µM [4] [%] | viability at 4 µM [5] [%] | viability at 10 µM [5] [%] | viability at 4 µM [6] [%] | viability at 10 µM [6] [%] | EC50 [1] [µM] | EC50 [2] [µM] | EC50 [3] [µM] | EC50 [4] [µM] | EC50 [5] [µM] | EC50 [6] [µM]
1 | Cc1ccc(Nc2nc3ccccc3c(N3CCC(NC(C)(C)C)CC3)c2C#N)cc1 [Compound 3248CN, 2-(4-methylphenylamino)-3-cyano-4-[4-(tert-butylamino)piperidin-1-yl]quinoline] | 88.5 | 53.4 | 79.2 | 0.4 | 88.9 | 0.5 | 89.3 | 56.3 | 100 | 27.7 | 109 | 73.1 |  |  |  |  |  | 
2 | CC(C)(C)NC1CCN(c2c(C#N)c(Nc3ccc(Cl)cc3)nc3ccccc23)CC1 [Compound 3258CN, 2-(4-chlorophenylamino)-3-cyano-4-[4-(tert-butylamino)piperidin-1-yl]quinoline] | 79.8 | 1 | 9.7 | 0.8 | 0.7 | 0.6 | 73.8 | 1.8 | 4.4 | 0.7 | 44.3 | 0.8 | 0.5 to 5 | 0.5 to 5 | 0.5 to 5 | 0.5 to 5 | 0.5 to 5 | 0.5 to 5
3 | CC(C)(C)NC1CCN(c2c(C#N)c(Nc3ccc(OC(F)(F)F)cc3)nc3ccccc23)CC1 [Compound 3266CN, 2-[4-(trifluoromethyloxy)phenylamino]-3-cyano-4-[4-(tert-butylamino)piperidin-1-yl]quinoline] | 91.4 | 50.3 | 48.1 | 21.1 | 17.7 | 4.7 | 78 | 49.1 | 28.1 | 3.8 | 60.6 | 24.9 |  |  |  |  |  | 
4 | Cn1ncnc1Nc1nc2ccccc2c(N2CCC(NC(C)(C)C)CC2)c1C#N [Compound 3270CN, 2-[(1-methyl-1H-1,2,4-triazol-5-yl)amino]-3-cyano-4-[4-(tert-butylamino)piperidin-1-yl]quinoline] | 33.2 | 1 | 49.2 | 31 | 47.4 | 6.3 | 79.6 | 32.3 | 52.6 | 34.7 | 37.5 | 24.1 | 0.5 to 5 | 0.5 to 5 |  | 5 to 10 | 5 to 10 | 0.5 to 5
5 | Cc1cc(C)nc(Nc2ccc(Nc3nc4ccccc4c(N4CCC(NC(C)(C)C)CC4)c3C#N)cc2)n1 [Compound 3276CN, 2-{4-[(4,6-dimethylpyrimidin-2-yl)amino]phenylamino}-3-cyano-4-[4-(tert-butylamino)piperidin-1-yl]quinoline] | 51.9 | 1 | 2.9 | 1 | 0.9 | 0.9 | 41.2 | 1 | 4.5 | 0.9 | 38.5 | 0.9 | 0.5 to 5 | 0.5 to 5 | 0.5 to 5 | 0.5 to 5 | 0.5 to 5 | 0.5 to 5
6 | Cc1nccnc1OC1CCCN(c2c(C#N)c(NCc3ccc(Cl)cc3)nc3ccccc23)C1 (centres unmarked) [Compound 3328CN, 2-(4-chlorobenzylamino)-3-cyano-4-{3-[(3-methylpyrazin-2-yl)oxy]piperidin-1-yl}quinoline] | 105 | 95.4 | 92.7 | 87.3 | 93.2 | 82.3 | 125 | 104 | 93.8 | 85.5 | 98.8 | 90.8 |  |  |  |  |  | 
7 | N#Cc1c(NCc2ccc(Cl)cc2)nc2ccccc2c1N1CCC(Oc2ccccc2)C1 (centres unmarked) [Compound 3330CN, 2-(4-chlorobenzylamino)-3-cyano-4-(3-phenoxypyrrolidin-1-yl)quinoline] | 102 | 93.6 | 92.9 | 82.4 | 76.8 | 49.7 | 70.6 | 33.7 | 30.4 | 19 | 99.4 | 80.4 |  |  |  |  |  | 
8 | Cc1ccc(OC2CCN(c3c(C#N)c(NCc4ccc(Cl)cc4)nc4ccccc34)C2)cc1 (centres unmarked) [Compound 3332CN, 2-(4-chlorobenzylamino)-3-cyano-4-[3-(4-methylphenoxy)pyrrolidin-1-yl]quinoline] | 104 | 94.1 | 108 | 103 | 101 | 87.2 | 95.3 | 58.3 | 52 | 25 | 65.6 | 62.5 |  |  |  |  |  | 
9 | COc1ccc(OC2CCN(c3c(C#N)c(NCc4ccc(Cl)cc4)nc4ccccc34)C2)cc1 (centres unmarked) [Compound 3334CN, 2-(4-chlorobenzylamino)-3-cyano-4-[3-(4-methoxyphenoxy)pyrrolidin-1-yl]quinoline] | 105 | 96.5 | 93.2 | 90 | 92.8 | 88.6 | 89.9 | 94.4 | 93.6 | 91.2 | 97.7 | 89.1 |  |  |  |  |  | 
10 | N#Cc1c(NCc2ccc(Cl)cc2)nc2ccccc2c1N1CCC(Oc2ccc(Cl)cc2)C1 (centres unmarked) [Compound 3336CN, 2-(4-chlorobenzylamino)-3-cyano-4-[3-(4-chlorophenoxy)pyrrolidin1--yl]quinoline] | 98.8 | 89.8 | 106 | 107 | 99 | 92 | 95.6 | 93.8 | 82.8 | 79.8 | 75.4 | 74.5 |  |  |  |  |  | 
11 | N#Cc1c(NCc2ccc(Cl)cc2)nc2ccccc2c1N1CCC(Oc2ccc(F)cc2)C1 (centres unmarked) [Compound 3338CN, 2-(4-chlorobenzylamino)-3-cyano-4-[3-(4-fluorophenoxy)pyrrolidin-1-yl]quinoline] | 112 | 107 | 94.9 | 93.4 | 94.3 | 87.6 | 96.9 | 101 | 93.3 | 59.4 | 98.8 | 92.2 |  |  |  |  |  | 
